Measurements: US6562843B1, “Substituted 3-pyridyl-4-arylpyrroles, and related therapeutic and prophylactic methods” (Ortho-McNeil Pharmaceutical, Inc., priority 1999, dated 2003)
Where a name gives a salt, the structure may show the parent alone.

Columns and labels:
TNF-α production = assay: In-Vitro Whole Cell Assay for TNF-α Inhibition (LPS-stimulated PBMC, ELISA); format: cell-based; settings: LPS overnight, TNF-α by ELISA
Experimental: B. In-Vitro Whole Cell Assay for TNF-α Inhibition
Freshly obtained venous blood was anticoagulated with heparin, diluted with an equal volume of phosphate buffered saline (“PBS”) and placed in a sterile tube or other container. Aliquots (30 mL) of this mixture were transferred to centrifuge tubes which were underlaid with Ficoll-Hypaque (15 mL). The prepared tubes were centrifuged at 400×g, without braking, for 30 min at room temperature. Approximately ½ to ⅔ of the platelet layer above the mononuclear cell band was removed with a pipette. The majority of the mononuclear cell layer was carefully removed using a pipette and these PBMC's were diluted with PBS and spun at 600×g for 15 min. The resulting PBMC's were washed with another portion of PBS and spun at 400×g for 10 min at room temperature. The recovered pellets were diluted in low endotoxin RPMI/1% FCS culture medium, and gave a cell concentration of 0.5-2.0×10^6 PMBC/mL. A small volume of the suspension was removed for counting on a hemocytometer and the remaining preparation was centrifuged at 200×g for 15 min at room temperature. The recovered pelleted PMBC's were resuspended in RPMI/1% FCS to a concentration of 1.67×10^6/mL.
To run the assay, the PBMC suspension (180 μL) was transferred to duplicate wells of a 96-well flat-bottom microtiter plate and incubated for 1 h at 37° C. A solution of test compound (10 μL: prepared at 20× the desired final concentration) was added to each well and the plate was incubated for 1 h at 37° C. A solution (10 μL) of LPS in RPMI/1% FCS (200 ng/mL) was added and the wells were incubated overnight at 37° C. The supernate (100 μL) was removed from each well and diluted with RPMI/1% FCS (400 μL). The samples were analyzed for TNF-α using a commercial ELISA kit (Genzyme).
The compounds were tested for their ability to inhibit TNF-α production. The IC50 nM results are listed for the indicated compounds.

[1] = test system: LPS-induced TNF-α production; assay: In Vivo Rodent Assay for Inhibition of TNF-α Production (mice); design: species or system Mice (BALB/cJ females); settings: oral dosing, LPS 1 mg/kg i.p., serum TNF-α; for TNF-α % Inhibition Mouse / inhibition in vivo at 25 mg/kg: 25 mg/kg; for inhibition in vivo at 10 mg/kg / inhibition in vivo at 25 mg/kg: Mus musculus, 1 h
Experimental: C. In Vivo Rodent Assay for Inhibition of TNF-α Production
Mice (BALB/cJ females, Jackson Laboratories) or rats (Lewis males, Charles River) were fasted for 30 min prior to oral dosing with 5-10 mL/kg of test compound at 5-50 mg/kg. Thirty minutes after dosing, the animals were injected intraperitoneally with LPS at 1 mg/kg and returned to their cages for 1 h. Animals were anesthetized by CO2, exsanguinated by cardiac puncture and whole blood collected (0.1-0.7 mL). The blood was allowed to clot and serum was transferred to a centrifuge tube. This sample was centrifuged, and serum was collected, aliquoted and frozen at −80° C. Samples were tested by commercial ELISA's for TNF-α (Endogen for mouse TNF-α and Biosource for rat TNF-α).

Compound	IC50 (TNF-α production)	TNF-α % Inhibition Mouse [1]	inhibition in vivo at 10 mg/kg [1]	inhibition in vivo at 25 mg/kg [1]
COc1cccc(-c2c[nH]cc2-c2ccncn2)c1 [compound 24]	250 nM	–	–	–
Cn1cc(-c2ccncc2)c(-c2ccncc2)c1 [compound 34]	3000 nM	–	–	–
CSc1ccc(-c2cn(C)cc2-c2ccncc2)cc1 [compound 35]	250 nM	–	–	–
COc1cccc(-c2cn(-c3ccc(NC(C)=O)cc3)cc2-c2ccncc2)c1 [compound 16]	75 nM	50%	–	–
Cn1cc(-c2ccncc2)c(-c2cccc(C(F)(F)F)c2)c1 [compound 9]	125 nM	–	–	–
Cn1cc(-c2ccncc2)c(-c2ccc(F)c(C(F)(F)F)c2)c1 [compound 7]	100 nM	–	61%	79%
COc1cccc(-c2cn(CCCc3ccccc3)cc2-c2ccncc2)c1 [compound 23]	2000 nM	–	–	–
CN(C)CCCn1cc(-c2ccc(F)cc2)c(-c2ccncc2)c1CCCc1ccccc1 [compound 44]	8 nM	–	100%	100%
Fc1ccc(-c2cn(CCN3CCCC3)c(CCCc3ccccc3)c2-c2ccncc2)cc1 [compound 45]	3 nM	–	99%	99%
OCCCc1[nH]cc(-c2ccc(F)cc2)c1-c1ccncc1 [compound 46, 4-(4-Fluorophenyl)-2-(3-hydroxypropyl)-3-(4-pyridyl)pyrrole]	544 nM	–	–	–
Fc1ccc(-c2cn(CCN3CCOCC3)c(CCCc3ccccc3)c2-c2ccncc2)cc1 [compound 43]	1 nM	–	93%	93%
COc1cccc(-c2c[nH]cc2-c2ccncc2)c1 [compound 13, 3-(3-Methoxyphenyl)-4-(4-pyridyl)pyrrole]	55 nM	–	–	–
Cn1cc(-c2ccncc2)c(-c2cc(F)cc(F)c2)c1 [compound 6]	175 nM	–	–	–
Fc1ccc(-c2c[nH]cc2-c2ccncc2)cc1F [compound 1]	20 nM	96%	–	–
Cn1cc(-c2ccccc2)c(-c2ccncc2)c1 [compound 38]	350 nM	–	–	–
Fc1ccc(-c2c[nH]cc2-c2ccncc2)cc1 [compound 27]	90 nM	–	73%	100%
COc1cccc(-c2cn(-c3ccc(N)cc3)cc2-c2ccncc2)c1 [compound 17]	95 nM	66%	–	–
Fc1ccc(-c2cn(CCN3CCCCC3)c(CCCc3ccccc3)c2-c2ccncc2)cc1 [compound 40]	3 nM	–	96%	96%
COc1cccc(-c2cn(-c3ccc([N+](=O)[O-])cc3)cc2-c2ccncc2)c1 [compound 15]	20 nM	–	–	–
Fc1ccc(-c2c[nH]c(CCCN3CCOCC3)c2-c2ccncc2)cc1 [compound 47, 4-(4-Fluorophenyl)-2-(3-morpholinopropyl)-3-(4-pyridyl)pyrrole]	177 nM	–	–	77%
CS(=O)(=O)c1ccc(-n2cc(-c3ccncc3)c(-c3ccc(F)c(F)c3)c2)cc1 [compound 5]	30 nM	–	–	–
Cn1cc(-c2ccncc2)c(-c2cc(F)cc(C(F)(F)F)c2)c1 [compound 8]	1500 nM	–	–	–
Cn1cc(-c2ccncc2)c(-c2cccc(F)c2)c1 [compound 10]	125 nM	–	–	–
Cn1cc(-c2ccncc2)c(-c2ccsc2)c1 [compound 25]	900 nM	–	–	–
Cn1cc(-c2ccncc2)c(-c2ccc([S+](C)[O-])cc2)c1 (stereo not shown) [compound 37]	3000 nM	–	–	–
Oc1cccc(-c2c[nH]cc2-c2ccncc2)c1 [compound 12, 3-(3-Hydroxyphenyl)-4-(4-pyridyl)pyrrole Hydrobromide]	300 nM	–	–	–
COc1ccc(-c2cn(C)cc2-c2ccncc2)cc1 [compound 26]	2000 nM	–	–	–
CN(C)c1ccc(-c2cn(C)cc2-c2ccncc2)cc1 [compound 36]	500 nM	–	–	–
COc1cccc(-c2cn(-c3ccccn3)cc2-c2ccncc2)c1 [compound 20]	150 nM	–	–	–
COc1cccc(-c2cn(-c3ccc([N+](=O)[O-])cc3[N+](=O)[O-])cc2-c2ccncc2)c1 [compound 21]	80 nM	–	–	–
